In the supplement of paper PMC11208160:

Experiment: recombinant barcode read abundance after kanamycin selection (control-corrected) (log10(CPM+1)); higher = more efficient recombination; sequences stand for … in AGTGCAGAGAAAATCGGCCAGTTTTCTCTGCCTGCAGTCCGCATGCCGT…ATTTATGCAGCGGACTGCCTTTCTCCCAAAGTGATAAACCGGACAGTATCATGGACCGGTTTTCCCGGTAATCCGTATTTGCAAGGTTGGTTTCACT; site = the 11-nt target
Outline: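 For this pooled screen, each oligo contained a promoter, a target, a barcode and the J23119-driven first 104 bases of the bridge RNA. Gibson cloning placed it into a vector supplying the remaining 73 bp and a T7-inducible recombinase, and the pool was co-electroporated into E. coli with a donor plasmid. Recombination efficiency is derived from barcode counts per million at recombinant junctions after averaging and control correction, and is expressed on a log scale as log10(CPM+1), with selection on chloramphenicol/ampicillin/kanamycin plus 0.1 mM IPTG against a chloramphenicol/ampicillin LB agar control.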
With “TCGCGACTCTGGGTTCTAACCTGTTGCCGGA [TCGCGACCTCG_LTGcore_TC_RTGcore_TC] (site TCGCGACCTCG) (LTG core: TC, RTG core: TC)” the “recombinant barcode read abundance (log10)” value was 0.0969.
With “TCGCGACTTTGGGTTCTAACCTGTTGCCGAA [TCGCGACCTCG_LTGcore_TT_RTGcore_TT] (site TCGCGACCTCG) (LTG core: TT, RTG core: TT)” the “recombinant barcode read abundance (log10)” value was 0.
For “TCTACCCAATGGGTTCTAACCTGTTGCTGAG [TCTACCCCTCA_LTGcore_AA_RTGcore_CT] (site TCTACCCCTCA) (LTG core: AA, RTG core: CT)”, the “recombinant barcode read abundance (log10)” value was 0.0508.
In the case of “TCTACCCACTGGGTTCTAACCTGTTGCTGAG [TCTACCCCTCA_LTGcore_AC_RTGcore_CT] (site TCTACCCCTCA) (LTG core: AC, RTG core: CT)”, the “recombinant barcode read abundance (log10)” value is reported as 0.0555.
With “TCTACCCAGTGGGTTCTAACCTGTTGCTGAG [TCTACCCCTCA_LTGcore_AG_RTGcore_CT] (site TCTACCCCTCA) (LTG core: AG, RTG core: CT)” the “recombinant barcode read abundance (log10)” value was 0.467.
For “TCTACCCCATGGGTTCTAACCTGTTGCTGAG [TCTACCCCTCA_LTGcore_CA_RTGcore_CT] (site TCTACCCCTCA) (LTG core: CA, RTG core: CT)”, the “recombinant barcode read abundance (log10)” value was 0.806.
In the case of “TCTACCCCTTGGGTTCTAACCTGTTGCTGCC [TCTACCCCTCA_LTGcore_CT_RTGcore_GG] (site TCTACCCCTCA) (LTG core: CT, RTG core: GG)”, the “recombinant barcode read abundance (log10)” value is reported as 0.0951.
With “TCTACCCGATGGGTTCTAACCTGTTGCTGAG [TCTACCCCTCA_LTGcore_GA_RTGcore_CT] (site TCTACCCCTCA) (LTG core: GA, RTG core: CT)” the “recombinant barcode read abundance (log10)” value was 0.208.
For “TCTACCCGGTGGGTTCTAACCTGTTGCTGCC [TCTACCCCTCA_LTGcore_GG_RTGcore_GG] (site TCTACCCCTCA) (LTG core: GG, RTG core: GG)”, the “recombinant barcode read abundance (log10)” value was 0.108.
With “TCTACCCTCTGGGTTCTAACCTGTTGCTGAG [TCTACCCCTCA_LTGcore_TC_RTGcore_CT] (site TCTACCCCTCA) (LTG core: TC, RTG core: CT)” the “recombinant barcode read abundance (log10)” value was 0.0968.
With “TCTACCCTCTGGGTTCTAACCTGTTGCTGGA [TCTACCCCTCA_LTGcore_TC_RTGcore_TC] (site TCTACCCCTCA) (LTG core: TC, RTG core: TC)” the “recombinant barcode read abundance (log10)” value was 0.032.
In the case of “TGATACCACTGGGTTCTAACCTGTTGCGTGT [TGATACCCTAC_LTGcore_AC_RTGcore_AC] (site TGATACCCTAC) (LTG core: AC, RTG core: AC)”, the “recombinant barcode read abundance (log10)” value is reported as 0.136.
For “TGATACCCATGGGTTCTAACCTGTTGCGTAG [TGATACCCTAC_LTGcore_CA_RTGcore_CT] (site TGATACCCTAC) (LTG core: CA, RTG core: CT)”, the “recombinant barcode read abundance (log10)” value was 0.328.
In the case of “TGATACCCCTGGGTTCTAACCTGTTGCGTAG [TGATACCCTAC_LTGcore_CC_RTGcore_CT] (site TGATACCCTAC) (LTG core: CC, RTG core: CT)”, the “recombinant barcode read abundance (log10)” value is reported as 0.566.
With “TGATACCCTTGGGTTCTAACCTGTTGCGTAA [TGATACCCTAC_LTGcore_CT_RTGcore_TT] (site TGATACCCTAC) (LTG core: CT, RTG core: TT)” the “recombinant barcode read abundance (log10)” value was 0.882.
In the case of “TGATACCCTTGGGTTCTAACCTGTTGCGTAT [TGATACCCTAC_LTGcore_CT_RTGcore_AT] (site TGATACCCTAC) (LTG core: CT, RTG core: AT)”, the “recombinant barcode read abundance (log10)” value is reported as 0.624.
For “TGATACCTATGGGTTCTAACCTGTTGCGTAG [TGATACCCTAC_LTGcore_TA_RTGcore_CT] (site TGATACCCTAC) (LTG core: TA, RTG core: CT)”, the “recombinant barcode read abundance (log10)” value was 0.0864.
In the case of “TGATACCTATGGGTTCTAACCTGTTGCGTTA [TGATACCCTAC_LTGcore_TA_RTGcore_TA] (site TGATACCCTAC) (LTG core: TA, RTG core: TA)”, the “recombinant barcode read abundance (log10)” value is reported as 0.0463.
With “TGATACCTCTGGGTTCTAACCTGTTGCGTGA [TGATACCCTAC_LTGcore_TC_RTGcore_TC] (site TGATACCCTAC) (LTG core: TC, RTG core: TC)” the “recombinant barcode read abundance (log10)” value was 0.0566.
With “TGATACCTTTGGGTTCTAACCTGTTGCGTAA [TGATACCCTAC_LTGcore_TT_RTGcore_TT] (site TGATACCCTAC) (LTG core: TT, RTG core: TT)” the “recombinant barcode read abundance (log10)” value was 0.0482.
In the case of “TGTATTCAATGGGTTCTAACCTGTTGCCTAG [TGTATTCCTAG_LTGcore_AA_RTGcore_CT] (site TGTATTCCTAG) (LTG core: AA, RTG core: CT)”, the “recombinant barcode read abundance (log10)” value is reported as 0.0633.
With “TGTATTCAATGGGTTCTAACCTGTTGCCTTT [TGTATTCCTAG_LTGcore_AA_RTGcore_AA] (site TGTATTCCTAG) (LTG core: AA, RTG core: AA)” the “recombinant barcode read abundance (log10)” value was 0.0627.
For “TGTATTCCCTGGGTTCTAACCTGTTGCCTAG [TGTATTCCTAG_LTGcore_CC_RTGcore_CT] (site TGTATTCCTAG) (LTG core: CC, RTG core: CT)”, the “recombinant barcode read abundance (log10)” value was 0.168.
With “TGTATTCCTTGGGTTCTAACCTGTTGCCTCG [TGTATTCCTAG_LTGcore_CT_RTGcore_CG] (site TGTATTCCTAG) (LTG core: CT, RTG core: CG)” the “recombinant barcode read abundance (log10)” value was 0.161.
For “TGTATTCCTTGGGTTCTAACCTGTTGCCTGA [TGTATTCCTAG_LTGcore_CT_RTGcore_TC] (site TGTATTCCTAG) (LTG core: CT, RTG core: TC)”, the “recombinant barcode read abundance (log10)” value was 0.0266.
With “TGTATTCCTTGGGTTCTAACCTGTTGCCTTC [TGTATTCCTAG_LTGcore_CT_RTGcore_GA] (site TGTATTCCTAG) (LTG core: CT, RTG core: GA)” the “recombinant barcode read abundance (log10)” value was 0.0942.
With “TGTATTCGCTGGGTTCTAACCTGTTGCCTGC [TGTATTCCTAG_LTGcore_GC_RTGcore_GC] (site TGTATTCCTAG) (LTG core: GC, RTG core: GC)” the “recombinant barcode read abundance (log10)” value was 0.312.
With “TGTATTCTGTGGGTTCTAACCTGTTGCCTCA [TGTATTCCTAG_LTGcore_TG_RTGcore_TG] (site TGTATTCCTAG) (LTG core: TG, RTG core: TG)” the “recombinant barcode read abundance (log10)” value was 0.205.
With “TTATAAAAGTGGGTTCTAACCTGTTGCCTAG [TTATAAACTAG_LTGcore_AG_RTGcore_CT] (site TTATAAACTAG) (LTG core: AG, RTG core: CT)” the “recombinant barcode read abundance (log10)” value was 0.0357.
In the case of “TTATAAACATGGGTTCTAACCTGTTGCCTAG [TTATAAACTAG_LTGcore_CA_RTGcore_CT] (site TTATAAACTAG) (LTG core: CA, RTG core: CT)”, the “recombinant barcode read abundance (log10)” value is reported as 0.314.
For “TTATAAACGTGGGTTCTAACCTGTTGCCTAG [TTATAAACTAG_LTGcore_CG_RTGcore_CT] (site TTATAAACTAG) (LTG core: CG, RTG core: CT)”, the “recombinant barcode read abundance (log10)” value was 0.111.
With “TTATAAACTTGGGTTCTAACCTGTTGCCTAA [TTATAAACTAG_LTGcore_CT_RTGcore_TT] (site TTATAAACTAG) (LTG core: CT, RTG core: TT)” the “recombinant barcode read abundance (log10)” value was 0.0141.
In the case of “TTATAAAGATGGGTTCTAACCTGTTGCCTAG [TTATAAACTAG_LTGcore_GA_RTGcore_CT] (site TTATAAACTAG) (LTG core: GA, RTG core: CT)”, the “recombinant barcode read abundance (log10)” value is reported as 0.0604.
With “TTATAAAGTTGGGTTCTAACCTGTTGCCTAC [TTATAAACTAG_LTGcore_GT_RTGcore_GT] (site TTATAAACTAG) (LTG core: GT, RTG core: GT)” the “recombinant barcode read abundance (log10)” value was 0.0636.
In the case of “TTATAAATGTGGGTTCTAACCTGTTGCCTCA [TTATAAACTAG_LTGcore_TG_RTGcore_TG] (site TTATAAACTAG) (LTG core: TG, RTG core: TG)”, the “recombinant barcode read abundance (log10)” value is reported as 0.0981.
